Results from patent EP2276483B1, “SOLID FORMS COMPRISING (+)-2-[1-(3-ETHOXY-4-METHOXYPHENYL)-2-METHYLSULFONYLETHYL]-4-ACETYLAMINOISOINDOLINE-1,3-DIONE, COMPOSITIONS THEREOF, AND USES THEREOF” (CELGENE CORPORATION, priority 2008, dated 2009).
≈ marks a conversion by molar mass, not a printed value.

Assays:
cAMP [1] = experiment: PGE2-induced cAMP elevation in human PBMC; assay type: cell-based; details: PGE2 (10µM)
Method: (§1) Prostaglandin E2 (PGE2) binds to prostanoid receptors on monocytes, T cells and other leukocytes and consequently elevates intracellular cAMP levels, resulting in inhibition of cellular responses. The combination of PGE2 and a PDE4 inhibitor synergistically elevates cAMP levels in these cell types, and the elevation of cAMP in PBMC caused by PDE4 inhibitors in the presence of PGE2 is proportional to the inhibitory activity of that PDE4 inhibitor. Intracellular cAMP was measured in human PBMC as follows. PBMC were isolated as described above and plated in 96-well plates at 1 x 10^6 cells per well in RPMI-1640. The cells were pre-treated with compounds at 100, 10, 1, 0.1, 0.01, and 0 µM in a final concentration of 2% DMSO in duplicate at 37°C in a humidified incubator at 5% CO2 for one hour. The cells were then stimulated with PGE2 (10µM) (Sigma) for 1h. The cells were lysed with HCl, 0.1 N final concentration to inhibit phosphodiesterase activity and the plates were frozen at -20°C. The cAMP produced was measured using cAMP (low pH) Immunoassay kit (R&D Systems).

[2] = biological target: T1, PDE5 from human platelets (Homo sapiens, UniProt O76074); experiment: PDE5 enzyme assay; assay type: biochemical; details: for PDE Specificity Ratio PDE4/PDE5: from above data
T1 construct: PDE5 from human platelets; from tissue; host or cells: human platelets

[3] = biological target: PDE7 purified from Hut78 human T cells (Homo sapiens, UniProt Q13946); experiment: PDE7 enzyme assay; assay type: biochemical
Sequence of PDE7 purified from Hut78 human T cells (Q13946 whole entry): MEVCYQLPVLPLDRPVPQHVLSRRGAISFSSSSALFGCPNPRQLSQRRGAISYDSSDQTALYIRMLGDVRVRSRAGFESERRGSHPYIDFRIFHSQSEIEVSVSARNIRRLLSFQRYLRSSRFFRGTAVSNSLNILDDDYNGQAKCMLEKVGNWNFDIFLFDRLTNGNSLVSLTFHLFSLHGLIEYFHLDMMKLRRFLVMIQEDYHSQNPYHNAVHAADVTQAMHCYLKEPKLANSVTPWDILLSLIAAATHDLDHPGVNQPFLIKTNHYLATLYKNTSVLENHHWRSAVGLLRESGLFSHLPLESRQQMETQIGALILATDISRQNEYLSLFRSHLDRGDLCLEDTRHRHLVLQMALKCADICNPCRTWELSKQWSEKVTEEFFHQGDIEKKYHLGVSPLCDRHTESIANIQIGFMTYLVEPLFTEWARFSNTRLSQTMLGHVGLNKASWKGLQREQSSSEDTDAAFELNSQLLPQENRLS
Method: PDE7 is a cAMP-selective PDE expressed mainly in T cells and in skeletal muscle. T cell-derived cytokines such as IL-2 and IFN-γ are potentially regulatable via PDE7 inhibition. […] Compounds were tested against the PDE7 preparation in the presence of 10 nM cAMP as described for PDE4 in Table 1.

cAMP [4] = experiment: PGE2-induced cAMP elevation in human neutrophils; assay type: cell-based; details: Neutrophil
Method: as §1
Elevation of cAMP in human neutrophils was measured as follows. PBMC were removed from source leukocytes (Sera-Tec Biologicals) by centrifugation on Ficoll-Paque Plus (Amersham Pharmacia). […]

[5] = biological target: PDE3 from human platelets (Homo sapiens, UniProt Q14432); experiment: PDE3 enzyme assay; assay type: biochemical; details: for PDE Specificity Ratio PDE4/PDE3: from above data
Sequence of PDE3 from human platelets (Q14432 whole entry): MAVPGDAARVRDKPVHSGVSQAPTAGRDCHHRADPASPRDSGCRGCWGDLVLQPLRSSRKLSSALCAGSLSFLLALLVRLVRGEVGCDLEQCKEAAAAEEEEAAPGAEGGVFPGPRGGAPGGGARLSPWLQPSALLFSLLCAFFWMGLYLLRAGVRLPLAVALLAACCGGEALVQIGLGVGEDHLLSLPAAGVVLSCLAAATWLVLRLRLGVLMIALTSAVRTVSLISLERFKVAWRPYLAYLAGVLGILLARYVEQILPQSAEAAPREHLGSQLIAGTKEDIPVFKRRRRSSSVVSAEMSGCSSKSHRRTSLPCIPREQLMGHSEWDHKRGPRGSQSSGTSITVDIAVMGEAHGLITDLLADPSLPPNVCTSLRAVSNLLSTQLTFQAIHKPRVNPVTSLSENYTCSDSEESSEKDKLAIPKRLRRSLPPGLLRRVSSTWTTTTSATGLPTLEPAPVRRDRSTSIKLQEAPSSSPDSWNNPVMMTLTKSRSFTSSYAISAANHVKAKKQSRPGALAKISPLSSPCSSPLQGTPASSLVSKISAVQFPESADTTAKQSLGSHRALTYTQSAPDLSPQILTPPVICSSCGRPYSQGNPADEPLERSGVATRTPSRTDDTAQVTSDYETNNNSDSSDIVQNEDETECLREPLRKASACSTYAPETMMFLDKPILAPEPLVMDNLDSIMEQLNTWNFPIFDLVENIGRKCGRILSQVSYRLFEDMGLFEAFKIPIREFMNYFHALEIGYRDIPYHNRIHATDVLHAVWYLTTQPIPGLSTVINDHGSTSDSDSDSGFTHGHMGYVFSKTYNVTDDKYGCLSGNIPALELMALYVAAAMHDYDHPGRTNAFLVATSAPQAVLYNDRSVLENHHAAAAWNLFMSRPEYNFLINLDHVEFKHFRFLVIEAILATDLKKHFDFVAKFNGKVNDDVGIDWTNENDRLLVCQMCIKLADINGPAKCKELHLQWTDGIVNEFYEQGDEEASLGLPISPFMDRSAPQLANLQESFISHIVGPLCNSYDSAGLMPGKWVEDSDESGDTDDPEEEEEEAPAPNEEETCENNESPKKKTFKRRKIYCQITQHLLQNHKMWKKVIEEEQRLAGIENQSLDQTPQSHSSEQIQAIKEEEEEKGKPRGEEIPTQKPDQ

bovine PDE1 = experiment: PDE1 enzyme assay; assay type: biochemical; details: for PDE Specificity Ratio PDE4/PDE1: from above data
PDE4 (from U937 cells) = experiment: PDE4 (U937 cell-derived) enzyme assay; assay type: biochemical, human; details: 1 µM cAMP
Method: PDE4 enzyme was purified from U937 human monocytic cells by gel filtration chromatography as previously described (Muller et al., 1998, Bioorg. & Med. Chem. Lett. 8:2669-2674). Phosphodiesterase reactions were carried out in 50 mM Tris HCl pH 7.5, 5 mM MgCl2, 1 µM cAMP, 10 nM [^3H]-cAMP for 30 min at 30°C, terminated by boiling, treated with 1 mg/ml snake venom, and separated using AG-1XS ion exchange resin (BioRad) as described (Muller et al., 1998, Bioorg. & Med. Chem. Lett. 8:2669-2674). Reactions consumed less than 15% of available substrate. Table 1. PDE Specificity

[6] = Aqueous equilibrium solubility in pH 7.4 buffer; assay type: physicochemical; details: thermodynamic from solid; pH 7.4 aqueous buffer, room temperature; read-out: Measured solubility
Method: Equilibrium solubilities were measured in pH 7.4 aqueous buffer. The pH 7.4 buffer was prepared by adjusting the pH of a 0.07 M NaH2PO4 solution to 7.4 with 10 N NaOH. The ionic strength of the solution was 0.15. At least 1 mg of powder was combined with 1 ml of buffer to make >1 mg/ml mixture. These samples were shaken for >2 hours and left to stand overnight at room temperature. The samples were then filtered through a 0.45-µm Nylon syringe filter that was first saturated with the sample. The filtrate was sampled twice, consecutively. The filtrate was assayed by HPLC against standards prepared in 50% methanol.

human PDE2 = human PDE2 (Homo sapiens, UniProt O00408); experiment: PDE2 enzyme assay; assay type: biochemical; details: for PDE Specificity Ratio PDE4/PDE2: from above data
Sequence of human PDE2 (O00408 whole entry): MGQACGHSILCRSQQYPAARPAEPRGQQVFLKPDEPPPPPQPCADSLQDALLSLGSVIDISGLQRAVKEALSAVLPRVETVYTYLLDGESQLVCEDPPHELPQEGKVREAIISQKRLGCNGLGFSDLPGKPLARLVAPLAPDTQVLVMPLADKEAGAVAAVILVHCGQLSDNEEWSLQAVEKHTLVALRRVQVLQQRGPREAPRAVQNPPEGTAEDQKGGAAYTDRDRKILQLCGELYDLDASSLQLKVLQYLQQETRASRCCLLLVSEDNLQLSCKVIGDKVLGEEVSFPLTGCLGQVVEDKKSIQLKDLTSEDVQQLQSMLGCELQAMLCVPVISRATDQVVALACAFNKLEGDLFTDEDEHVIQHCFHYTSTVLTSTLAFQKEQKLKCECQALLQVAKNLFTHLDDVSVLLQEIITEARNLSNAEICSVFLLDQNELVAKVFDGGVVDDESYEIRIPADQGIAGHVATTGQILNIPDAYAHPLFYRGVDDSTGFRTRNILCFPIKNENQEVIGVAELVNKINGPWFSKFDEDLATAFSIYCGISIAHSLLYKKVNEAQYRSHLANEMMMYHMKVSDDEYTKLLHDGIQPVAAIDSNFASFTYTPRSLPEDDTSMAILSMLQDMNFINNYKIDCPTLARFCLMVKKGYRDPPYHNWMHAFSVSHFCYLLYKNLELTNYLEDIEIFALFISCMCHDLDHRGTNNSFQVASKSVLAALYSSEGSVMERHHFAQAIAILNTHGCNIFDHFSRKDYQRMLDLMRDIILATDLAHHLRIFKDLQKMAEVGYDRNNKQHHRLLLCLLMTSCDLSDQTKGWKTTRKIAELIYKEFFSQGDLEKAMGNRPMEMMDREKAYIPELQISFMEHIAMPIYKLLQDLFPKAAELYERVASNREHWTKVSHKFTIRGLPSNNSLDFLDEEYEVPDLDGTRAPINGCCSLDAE

LTB4 = experiment: fMLF-induced LTB4 production in neutrophils; assay type: cell-based; details: Neutrophil; human neutrophils; 1 µM fMLF
Method: N-formyl-methionine-leucine-phenylalanine (fMLF) is a bacterially derived peptide that activates neutrophils to rapidly degranulate, migrate, adhere to endothelial cells, and release leukotriene LTB4, a product of arachidonic acid metabolism and itself a neutrophil chemoattractant. Compounds were tested for the ability to block fMLF-induced neutrophil LTB4 production as previously described (Hatzelmann and Schudt, 2001, J. Pharm. Exp. Ther., 297:267-279), with the following modifications. Neutrophils were isolated as described above and resuspended in phosphate-buffered saline without calcium or magnesium (BioWhittaker) containing 10 mM HEPES pH 7.2 and plated in 96-well tissue culture plates at a concentration of 1.7 x 10^6 cells/well. Cells were treated with 50 µM thimerosal (Sigma)/1 mM CaCl2/1 mM MgCl2 for 15 minutes at 37°C 5% CO2, then treated with compounds at 1000, 200, 40, 8, 1.6, 0.32, 0.064, and 0 nM in a final DMSO concentration of 0.01 % in duplicate for 10 minutes. Neutrophils were stimulated with 1 µM fMLF for 30 minutes, then lysed by the addition of methanol (20% final concentration) and frozen in a dry ice/isopropanol bath for 10 minutes. Lysates were stored at -70°C until the LTB4 content was measured by competitive LTB4 ELISA (R&D Systems).

[7] = biological target: T2, PDE6 from bovine retinal rod outer segments (Bos taurus, UniProt P11541+P23439); experiment: PDE6 enzyme assay; assay type: biochemical
T2 construct: PDE6 from bovine retinal rod outer segments; from tissue; host or cells: bovine retinal rod outer segments
T2 sequence (P11541 2-856 limits assumed): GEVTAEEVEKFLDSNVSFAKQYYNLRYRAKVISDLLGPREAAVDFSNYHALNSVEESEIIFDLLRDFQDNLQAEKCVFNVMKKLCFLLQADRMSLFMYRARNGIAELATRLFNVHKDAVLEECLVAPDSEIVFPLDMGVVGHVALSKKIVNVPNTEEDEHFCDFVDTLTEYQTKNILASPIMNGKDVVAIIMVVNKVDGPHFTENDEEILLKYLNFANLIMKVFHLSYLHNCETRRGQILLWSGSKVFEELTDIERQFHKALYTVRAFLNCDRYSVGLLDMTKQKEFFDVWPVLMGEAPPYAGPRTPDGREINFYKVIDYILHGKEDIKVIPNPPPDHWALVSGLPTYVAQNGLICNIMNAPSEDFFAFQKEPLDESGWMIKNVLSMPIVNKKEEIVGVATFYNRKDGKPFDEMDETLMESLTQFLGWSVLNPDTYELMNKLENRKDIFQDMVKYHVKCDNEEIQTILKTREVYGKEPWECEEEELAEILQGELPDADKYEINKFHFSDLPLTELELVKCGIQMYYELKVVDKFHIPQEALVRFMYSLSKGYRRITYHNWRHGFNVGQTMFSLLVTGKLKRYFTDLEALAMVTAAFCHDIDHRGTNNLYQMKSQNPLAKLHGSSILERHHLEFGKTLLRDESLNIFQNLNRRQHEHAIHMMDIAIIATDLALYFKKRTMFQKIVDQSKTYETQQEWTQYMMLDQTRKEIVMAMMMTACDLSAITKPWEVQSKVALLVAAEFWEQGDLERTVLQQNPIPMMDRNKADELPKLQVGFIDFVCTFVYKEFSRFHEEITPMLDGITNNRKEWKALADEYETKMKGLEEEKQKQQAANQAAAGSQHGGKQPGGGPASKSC
T2 sequence (P23439 2-850 limits assumed): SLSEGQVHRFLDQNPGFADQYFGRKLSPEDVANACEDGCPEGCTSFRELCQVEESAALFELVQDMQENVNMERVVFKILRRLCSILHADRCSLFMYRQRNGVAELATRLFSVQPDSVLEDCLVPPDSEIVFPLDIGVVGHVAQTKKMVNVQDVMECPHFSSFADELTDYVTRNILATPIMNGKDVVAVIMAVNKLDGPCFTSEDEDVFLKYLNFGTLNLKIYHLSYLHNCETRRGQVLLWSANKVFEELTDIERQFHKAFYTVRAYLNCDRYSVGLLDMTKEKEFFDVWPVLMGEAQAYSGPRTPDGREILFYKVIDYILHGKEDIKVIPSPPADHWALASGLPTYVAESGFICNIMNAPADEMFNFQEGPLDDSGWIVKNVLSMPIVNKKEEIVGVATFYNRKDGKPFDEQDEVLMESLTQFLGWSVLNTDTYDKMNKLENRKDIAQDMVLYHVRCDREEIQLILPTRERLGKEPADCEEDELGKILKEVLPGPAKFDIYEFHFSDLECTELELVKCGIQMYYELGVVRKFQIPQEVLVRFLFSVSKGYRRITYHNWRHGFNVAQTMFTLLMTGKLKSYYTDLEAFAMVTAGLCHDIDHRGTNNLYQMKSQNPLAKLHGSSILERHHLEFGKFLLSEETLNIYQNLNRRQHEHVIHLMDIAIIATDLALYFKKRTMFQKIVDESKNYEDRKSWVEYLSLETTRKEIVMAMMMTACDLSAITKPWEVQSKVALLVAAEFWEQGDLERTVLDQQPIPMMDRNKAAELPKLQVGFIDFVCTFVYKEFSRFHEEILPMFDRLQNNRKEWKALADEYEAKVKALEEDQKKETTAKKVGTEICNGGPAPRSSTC

**Q.** What does the source list for CCOc1cc(C(CS(C)(=O)=O)N2C(=O)c3cccc(NC(C)=O)c3C2=O)ccc1OC (racemic) [Racemic Compound, 2-[1-(3-Ethoxy-4-methoxyphenyl)-2-methylsulfonylethyl]-4-acetylaminoisoindoline-1,3-dione]?
**A.** EC50 (cAMP [1]): 3090 nM; PDE Specificity Ratio PDE4/PDE5 [2]: >12000 fold; inhibition at 10 µM ([2]; read-out: PDE5 (% inhib at 10 µM)): 3%; IC50 ([3]; 10 nM cAMP): 22100 nM; PDE Specificity Ratio PDE7 IC50/PDE4 IC50 ([3]; from above data): 270 fold; EC50 (cAMP [4]): 12600 nM; PDE Specificity Ratio PDE4/PDE3 [5]: >670 fold; inhibition at 10 µM ([5]; read-out: PDE3 (% inhib at 10 µM)): 21%; PDE1 (% inhib at 10 µM) (bovine PDE1): 9%; PDE Specificity Ratio PDE4/PDE1 (bovine PDE1): >2700 fold; IC50 (PDE4 (from U937 cells)): 81.8 nM; solubility [6]: 3.4 µg/mL (≈ 7.38 µM); PDE Specificity Ratio PDE4/PDE2 (human PDE2): >800 fold; inhibition at 10 µM (human PDE2; read-out: PDE2(% inhib at 10 µM)): 19%; IC50 (LTB4): 20.1 nM

**Q.** Which results are given for CCOc1cc([C@H](CS(C)(=O)=O)N2C(=O)c3cccc(NC(C)=O)c3C2=O)ccc1OC [Compound B]?
**A.** PDE6 (% inhib at 10 µM) ([7]; 10 µM): 10%; PDE Specificity Ratio PDE4/PDE6 ([7]; from above data): >250 fold; PDE5 (% inhib at 10 µM) ([2]; 10 µM): -9%; PDE Specificity Ratio PDE4/PDE5 [2]: >39000 fold; PDE3 (% inhib at 10 µM) ([5]; 10 µM): 31%; PDE Specificity Ratio PDE4/PDE3 [5]: >45 fold; PDE1 (% inhib at 10 µM) (bovine PDE1): 27%; PDE Specificity Ratio PDE4/PDE1 (bovine PDE1): >50 fold; IC50 (PDE4 (from U937 cells)): 611 nM; PDE2(% inhib at 10 µM) (human PDE2; 10 µM): 10%; PDE Specificity Ratio PDE4/PDE2 (human PDE2): >260 fold
